From paper PMC6222781, “Structural Optimization of Foldamer-Dendrimer Conjugates as Multivalent Agents against the Toxic Effects of Amyloid Beta Oligomers” (Molecules : A Journal of Synthetic Chemistry and Natural …, 2018)

Legend:
Aβ oligomers [1] = biological target: T1, Aβ oligomers (Homo sapiens, UniProt P05067); experiment: Sandwich ELISA binding of biotin-tagged conjugates to Aβ
T1 construct: Ser^26 depsipeptide iso-Aβ (1–42) was used; made in house; host or cells: chemical peptide synthesis (no expression host)
T1 sequence (P05067 672-713 limits assumed): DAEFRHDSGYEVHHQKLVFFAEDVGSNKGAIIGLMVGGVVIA
Description: To study the role of certain structure elements in the binding affinity, a set of new foldamer sequences were designed (Figure 2) and ligated to lysine-dendron scaffolds having a focal symmetry. This template with biotin affinity tag can be easily synthesized by solid phase peptide synthesis and immobilized on a streptavidin coated support such as the surface of the ELISA plate. Structural changes included fine-tuning the side-chain properties (2b–2d), changing the position of ionic residues (2e) and introducing bulky bicyclic side-chains (2f–2i).
The binding affinities of 2b–2i to Aβ oligomers were tested in ITC experiments. In such cases where the fitting failed due to low heat response or poor solubility, sandwich ELISA experiments were performed to enable the comparison of all conjugates (see Supporting Information for details).
The apparent dissociation constants for the complete set of new conjugates were calculated individually from the data of the ELISA experiments as well. Comparing the KD values of 2f–2i in this case, the replacement of ACHC to ABHC had only a minor effect on the Aβ binding. The cyclic β-amino acid ACHC not only provides the helical conformation of such a short foldamer but also protects the ionic residues from solvent upon binding due to its hydrophobicity.

Aβ oligomers [2] = biological target: T1, Aβ oligomers; experiment: Isothermal titration calorimetry (ITC) binding to Aβ oligomers; conditions: KD ITC, Table 1, PBS pH 7.4, 285 K, Aβ 100 µM in cell, ligand 250 µM in syringe, two independent site model
Method: The binding affinities of 2b–2i to Aβ oligomers were tested in ITC experiments.
In this work, Ser^26 depsipeptide iso-Aβ (1–42) was used, which was synthesized and purified as described previously. The lyophilized iso-Aβ (1–42) was dissolved in MilliQ water to a concentration of 1 mg mL^−1, sonicated for 3 min and the pH was set to 7.0 to initiate an O to N acyl migration, whereby the native sequence can be readily formed. The sample was incubated at room temperature for 10 min. Then the pH was set to 11 and the sample was kept at room temperature for additional 2 h. After the incubation, the Aβ stock solution was aliquoted and stored at −20 °C until use. To obtain Aβ oligomers, the 1 mg mL^−1 aliquot was diluted to a final concentration of 50 μM with 26.67 mM PBS and the pH was set to 7.4 with 1 M HCl. The sample was incubated at 37 °C for 3 h.
Isothermal calorimetric titrations were performed with a Microcal VP-ITC microcalorimeter in pH 7.4 PBS buffer solution. In individual titrations, 10 µL portions of the ligand containing solution were repeatedly injected from the computer-controlled 300-µL microsyringe at intervals of 300 s into the Aβ oligomer solution prepared in the same buffer as the ligand. All measurements were carried out at 285 K. The Aβ concentration in the cell was 100 µM and the total ligand concentration was 250 µM in the syringe and the titration was stopped when the precipitation of the Aβ aggregates became excessive. Control experiments were performed by injecting the ligand into a cell containing buffer with no target, and the heats of dilution were subtracted from those measured in the presence of Aβ. The experimental data were fitted to the two independent site binding models by using a nonlinear least-squares procedure, with ΔHb, ΔHb’, Kd, Kd’ ([…]), n and n’ (number of binding sites for monomer), as adjustable parameters.

Compound | Kd (Aβ oligomers [1]) [nM] | Kd (Aβ oligomers [2]; first binding stage) [nM] | Kd (Aβ oligomers [2]; second binding stage) [nM]
CC1(C)[C@H]2C[C@H](NC(=O)[C@H]3CCCC[C@@H]3NC(=O)C[C@H](CCCNC(=N)N)NC(=O)[C@H]3CCCC[C@@H]3N)[C@@H](C(=O)N[C@@H](CC(=O)O)CC(=O)N[C@H]3CCCC[C@@H]3C(=O)NCC(=O)NCC(=O)N[C@@H](CSC3CC(=O)N(CCC(=O)NCCCC[C@H](NC(=O)CCN4C(=O)CC(SC[C@H](NC(=O)CNC(=O)CNC(=O)[C@H]5CCCC[C@@H]5NC(=O)C[C@H](CC(=O)O)NC(=O)[C@@H]5[C@@H](NC(=O)[C@H]6CCCC[C@@H]6NC(=O)C[C@H](CCCNC(=N)N)NC(=O)[C@H]6CCCC[C@@H]6N)C[C@H]6C[C@@H]5C6(C)C)C(N)=O)C4=O)C(=O)NCCCC[C@H](NC(=O)[C@H](CCCCNC(=O)CCN4C(=O)CC(SC[C@H](NC(=O)CNC(=O)CNC(=O)[C@H]5CCCC[C@@H]5NC(=O)C[C@H](CC(=O)O)NC(=O)[C@@H]5[C@@H](NC(=O)[C@H]6CCCC[C@@H]6NC(=O)C[C@H](CCCNC(=N)N)NC(=O)[C@H]6CCCC[C@@H]6N)C[C@H]6C[C@@H]5C6(C)C)C(N)=O)C4=O)NC(=O)CCN4C(=O)CC(SC[C@H](NC(=O)CNC(=O)CNC(=O)[C@H]5CCCC[C@@H]5NC(=O)C[C@H](CC(=O)O)NC(=O)[C@@H]5[C@@H](NC(=O)[C@H]6CCCC[C@@H]6NC(=O)C[C@H](CCCNC(=N)N)NC(=O)[C@H]6CCCC[C@@H]6N)C[C@H]6C[C@@H]5C6(C)C)C(N)=O)C4=O)C(=O)N[C@@H](CCCCNC(=O)CCCC[C@@H]4SC[C@@H]5NC(=O)N[C@@H]54)C(N)=O)C3=O)C(N)=O)[C@@H]1C2 (stereo partly drawn) [Compound 2h] | 1.35 ± 0.08 | 8.61 ± 5.64 | 79 ± 45.9
N=C(N)NCCC[C@@H](CC(=O)N[C@H]1CCCC[C@@H]1C(=O)N[C@H]1CCCC[C@@H]1C(=O)N[C@@H](CC(=O)O)CC(=O)N[C@H]1CCCC[C@@H]1C(=O)NCC(=O)NCC(=O)N[C@@H](CSC1CC(=O)N(CCC(=O)NCCCC[C@H](NC(=O)CCN2C(=O)CC(SC[C@H](NC(=O)CNC(=O)CNC(=O)[C@H]3CCCC[C@@H]3NC(=O)C[C@H](CC(=O)O)NC(=O)[C@H]3CCCC[C@@H]3NC(=O)[C@H]3CCCC[C@@H]3NC(=O)C[C@H](CCCNC(=N)N)NC(=O)[C@H]3CCCC[C@@H]3N)C(N)=O)C2=O)C(=O)NCCCC[C@H](NC(=O)[C@H](CCCCNC(=O)CCN2C(=O)CC(SC[C@H](NC(=O)CNC(=O)CNC(=O)[C@H]3CCCC[C@@H]3NC(=O)C[C@H](CC(=O)O)NC(=O)[C@H]3CCCC[C@@H]3NC(=O)[C@H]3CCCC[C@@H]3NC(=O)C[C@H](CCCNC(=N)N)NC(=O)[C@H]3CCCC[C@@H]3N)C(N)=O)C2=O)NC(=O)CCN2C(=O)CC(SC[C@H](NC(=O)CNC(=O)CNC(=O)[C@H]3CCCC[C@@H]3NC(=O)C[C@H](CC(=O)O)NC(=O)[C@H]3CCCC[C@@H]3NC(=O)[C@H]3CCCC[C@@H]3NC(=O)C[C@H](CCCNC(=N)N)NC(=O)[C@H]3CCCC[C@@H]3N)C(N)=O)C2=O)C(=O)N[C@@H](CCCCNC(=O)CCCC[C@@H]2SC[C@@H]3NC(=O)N[C@@H]32)C(N)=O)C1=O)C(N)=O)NC(=O)[C@H]1CCCC[C@@H]1N (stereo partly drawn) [Compound 2a] | 0.95 ± 0.06 | 27.6 ± 7.74 | 240 ± 68.7
N=C(N)NCCC[C@@H](CC(=O)N[C@H]1CCCC[C@@H]1C(=O)N[C@H]1CCCC[C@@H]1C(=O)N[C@@H](CCC(=O)O)CC(=O)N[C@H]1CCCC[C@@H]1C(=O)NCC(=O)NCC(=O)N[C@@H](CSC1CC(=O)N(CCC(=O)NCCCC[C@H](NC(=O)CCN2C(=O)CC(SC[C@H](NC(=O)CNC(=O)CNC(=O)[C@H]3CCCC[C@@H]3NC(=O)C[C@H](CCC(=O)O)NC(=O)[C@H]3CCCC[C@@H]3NC(=O)[C@H]3CCCC[C@@H]3NC(=O)C[C@H](CCCNC(=N)N)NC(=O)[C@H]3CCCC[C@@H]3N)C(N)=O)C2=O)C(=O)NCCCC[C@H](NC(=O)[C@H](CCCCNC(=O)CCN2C(=O)CC(SC[C@H](NC(=O)CNC(=O)CNC(=O)[C@H]3CCCC[C@@H]3NC(=O)C[C@H](CCC(=O)O)NC(=O)[C@H]3CCCC[C@@H]3NC(=O)[C@H]3CCCC[C@@H]3NC(=O)C[C@H](CCCNC(=N)N)NC(=O)[C@H]3CCCC[C@@H]3N)C(N)=O)C2=O)NC(=O)CCN2C(=O)CC(SC[C@H](NC(=O)CNC(=O)CNC(=O)[C@H]3CCCC[C@@H]3NC(=O)C[C@H](CCC(=O)O)NC(=O)[C@H]3CCCC[C@@H]3NC(=O)[C@H]3CCCC[C@@H]3NC(=O)C[C@H](CCCNC(=N)N)NC(=O)[C@H]3CCCC[C@@H]3N)C(N)=O)C2=O)C(=O)N[C@@H](CCCCNC(=O)CCCC[C@@H]2SC[C@@H]3NC(=O)N[C@@H]32)C(N)=O)C1=O)C(N)=O)NC(=O)[C@H]1CCCC[C@@H]1N (stereo partly drawn) [Compound 2c] | 1.92 ± 0.21 | 2.53 ± 1.81 | 175 ± 46.4
NCCCC[C@@H](CC(=O)N[C@H]1CCCC[C@@H]1C(=O)N[C@H]1CCCC[C@@H]1C(=O)N[C@@H](CC(=O)O)CC(=O)N[C@H]1CCCC[C@@H]1C(=O)NCC(=O)NCC(=O)N[C@@H](CSC1CC(=O)N(CCC(=O)NCCCC[C@H](NC(=O)CCN2C(=O)CC(SC[C@H](NC(=O)CNC(=O)CNC(=O)[C@H]3CCCC[C@@H]3NC(=O)C[C@H](CC(=O)O)NC(=O)[C@H]3CCCC[C@@H]3NC(=O)[C@H]3CCCC[C@@H]3NC(=O)C[C@H](CCCCN)NC(=O)[C@H]3CCCC[C@@H]3N)C(N)=O)C2=O)C(=O)NCCCC[C@H](NC(=O)[C@H](CCCCNC(=O)CCN2C(=O)CC(SC[C@H](NC(=O)CNC(=O)CNC(=O)[C@H]3CCCC[C@@H]3NC(=O)C[C@H](CC(=O)O)NC(=O)[C@H]3CCCC[C@@H]3NC(=O)[C@H]3CCCC[C@@H]3NC(=O)C[C@H](CCCCN)NC(=O)[C@H]3CCCC[C@@H]3N)C(N)=O)C2=O)NC(=O)CCN2C(=O)CC(SC[C@H](NC(=O)CNC(=O)CNC(=O)[C@H]3CCCC[C@@H]3NC(=O)C[C@H](CC(=O)O)NC(=O)[C@H]3CCCC[C@@H]3NC(=O)[C@H]3CCCC[C@@H]3NC(=O)C[C@H](CCCCN)NC(=O)[C@H]3CCCC[C@@H]3N)C(N)=O)C2=O)C(=O)N[C@@H](CCCCNC(=O)CCCC[C@@H]2SC[C@@H]3NC(=O)N[C@@H]32)C(N)=O)C1=O)C(N)=O)NC(=O)[C@H]1CCCC[C@@H]1N (stereo partly drawn) [Compound 2b] | 5.36 ± 1.42 | 53.2 ± 38.7 | 373 ± 104
CC1(C)[C@H]2C[C@H](N)[C@@H](C(=O)N[C@@H](CCCNC(=N)N)CC(=O)N[C@H]3CCCC[C@@H]3C(=O)N[C@H]3CCCC[C@@H]3C(=O)N[C@@H](CC(=O)O)CC(=O)N[C@H]3CCCC[C@@H]3C(=O)NCC(=O)NCC(=O)N[C@@H](CSC3CC(=O)N(CCC(=O)NCCCC[C@H](NC(=O)CCN4C(=O)CC(SC[C@H](NC(=O)CNC(=O)CNC(=O)[C@H]5CCCC[C@@H]5NC(=O)C[C@H](CC(=O)O)NC(=O)[C@H]5CCCC[C@@H]5NC(=O)[C@H]5CCCC[C@@H]5NC(=O)C[C@H](CCCNC(=N)N)NC(=O)[C@@H]5[C@@H](N)C[C@H]6C[C@@H]5C6(C)C)C(N)=O)C4=O)C(=O)NCCCC[C@H](NC(=O)[C@H](CCCCNC(=O)CCN4C(=O)CC(SC[C@H](NC(=O)CNC(=O)CNC(=O)[C@H]5CCCC[C@@H]5NC(=O)C[C@H](CC(=O)O)NC(=O)[C@H]5CCCC[C@@H]5NC(=O)[C@H]5CCCC[C@@H]5NC(=O)C[C@H](CCCNC(=N)N)NC(=O)[C@@H]5[C@@H](N)C[C@H]6C[C@@H]5C6(C)C)C(N)=O)C4=O)NC(=O)CCN4C(=O)CC(SC[C@H](NC(=O)CNC(=O)CNC(=O)[C@H]5CCCC[C@@H]5NC(=O)C[C@H](CC(=O)O)NC(=O)[C@H]5CCCC[C@@H]5NC(=O)[C@H]5CCCC[C@@H]5NC(=O)C[C@H](CCCNC(=N)N)NC(=O)[C@@H]5[C@@H](N)C[C@H]6C[C@@H]5C6(C)C)C(N)=O)C4=O)C(=O)N[C@@H](CCCCNC(=O)CCCC[C@@H]4SC[C@@H]5NC(=O)N[C@@H]54)C(N)=O)C3=O)C(N)=O)[C@@H]1C2 (stereo partly drawn) [Compound 2f] | 1.79 ± 0.09 | 19.3 ± 9.4 | 816 ± 467
